Data reported in patent publication US9238034B2, “FN14 antagonists and therapeutic uses thereof” (THE TRANSLATIONAL GENOMICS RESEARCH INSTITUTE, priority 2013, dated 2016).
Where two headings read alike, the source gives them in different places.

Molecular target: T1, Fn14-TWEAK binding (Homo sapiens, UniProt Q9NP84)
T1 construct: the human Fc fragment-tagged Fn14 extracellular domain (R&D Systems) was captured; purchased R&D Systems (Fn14-Fc); Peprotech (recombinant TWEAK)
T1 sequence (Q9NP84 28-80 limits assumed): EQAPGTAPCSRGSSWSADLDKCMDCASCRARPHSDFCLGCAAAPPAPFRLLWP
Test: Double sandwich ELISA small molecule screening of TWEAK binding to captured Fn14-Fc
Procedure: Double Sandwich ELISA. sTWEAK and sTWEAK variant proteins were synthesized as described above. The expression level of each IVTT synthesized sTWEAK protein was analyzed by western blot analysis and used in approximately equal amounts in the ELISA. To assay the binding of wild type sTWEAK and sTWEAK variants to Fn14, the human Fc fragment-tagged Fn14 extracellular domain (R&D Systems) was captured in an Immuno 96-microwell white plate by adding 100 μL of 0.025 μg/mL Fn14-Fc to wells coated with goat anti-human Fcγ fragment specific monoclonal antibody. After capture, the wells were washed 3× with Dulbecco's Phosphate Buffered Saline (DPBS) containing 0.05% Tween-20. Unbound sites were blocked by addition of 100 μL of blocking solution containing 0.05% Tween-20, 1% BSA, and 3% normal goat serum (NGS) in DPBS for 1 hr at room temperature. 0.01 μL of sTWEAK or sTWEAK variant made with the human IVTT kit or 2 μL of sTWEAK or sTWEAK variant made with the rabbit IVTT kit was diluted in 100 μL of sample diluent (DPBS+1% BSA+0.005% Tween-20) and then added to the wells for 2 hr followed by addition of 100 μL of 50 ng/mL biotinylated TWEAK detection antibody (R&D Systems) in sample diluent. Following incubation for additional 2 hr at room temperature, wells were washed 3× with DPBS containing 0.05% Tween-20 and bound biotinylated TWEAK antibody was detected by incubation with an HRP-conjugated streptavidin. The total luminescent signal was obtained using Femto ELISA kit (Pierce Biochemical) and compared to the standard curve signal obtained from the binding of 0-4000 pg/mL recombinant TWEAK (Peprotech inc) to Fn14-Fc. Using 5-parameter logistic curve fitting for standard curve analysis (Sigmaplot 11.0, SyStat Software Inc.), binding of sTWEAK or TWEAK variant to Fn14-Fc was determined. The data represents that observed for at least four replicate assays.
The small molecule screening was performed using the ELISA assay described above with minor modifications. Briefly, after capturing Fn14-Fc in the microwell plate, 80 μl of drug solution in sample diluent was added to desired wells and incubated for 2 hrs at room temperature. Subsequently, 20 μL of 2500 pg/mL (5×) TWEAK was added to each well to achieve final TWEAK concentration of 500 pg/mL and incubated for additional 2 hr at room temperature. Bound TWEAK was detected as described in the protocol above. All small molecule inhibitors were screened at 25 μM final concentration (final DMSO concentration of 0.125%) in duplicate. Cyclohexamide, a non-specific small molecule, at 25 μM concentration was used as negative control. The anti-Fn14 antibody ITEM-4, added at 2.5 μg/mL, was used as a positive control for complete blockade of TWEAK binding. Reduction in TWEAK binding due to compound addition or controls was calculated by using standard curve (Separate standard curve was obtained for every screening plate).

[1] = Table 5, 25 μM, average of duplicate, read-out: % Reduction in TWEAK Binding, Average
[2] = Table 5, 25 μM, replicate 1, read-out: % Reduction in TWEAK Binding, Data 1
[3] = Table 5, 25 μM, replicate 2, read-out: % Reduction in TWEAK Binding, Data 2
[4] = Table 4, second screening iteration, 25 μM, average of duplicate, read-out: % Reduction in TWEAK Binding, Average
[5] = Table 4, second screening iteration, 25 μM, replicate 1, read-out: % Reduction in TWEAK Binding, Data 1
[6] = Table 4, second screening iteration, 25 μM, replicate 2, read-out: % Reduction in TWEAK Binding, Data 2
[7] = second screening iteration, 25 μM, average, read-out: inhibition of TWEAK binding to Fn14
[8] = Table 3, first round of screening, 25 μM, average of duplicate, read-out: % Reduction in TWEAK Binding, Average
[9] = Table 3, first round of screening, 25 μM, replicate 1, read-out: % Reduction in TWEAK Binding, Data 1
[10] = Table 3, first round of screening, 25 μM, replicate 2, read-out: % Reduction in TWEAK Binding, Data 2
[11] = first round of screening, 25 μM, read-out: average inhibition in TWEAK-Fn14 binding

| inhibition at 25 µM [1] [%] | inhibition at 25 µM [2] [%] | inhibition at 25 µM [3] [%] | inhibition at 25 µM [4] [%] | inhibition at 25 µM [5] [%] | inhibition at 25 µM [6] [%] | inhibition at 25 µM [7] [%] | % Reduction in TWEAK Binding, Average (Table 4, second screening iteration, 25 μM, average of duplicate) [%] | % Reduction in TWEAK Binding, Data 2 (Table 4, second screening iteration, 25 μM, replicate 2) [%] | inhibition at 25 µM [8] [%] | inhibition at 25 µM [9] [%] | inhibition at 25 µM [10] [%] | inhibition at 25 µM (first round of screening, 25 μM, read-out: single point activities / individual data points, inhibition of the Fn14-TWEAK interaction) [%] | inhibition at 25 µM [11] [%] | SMILES |
| --- | --- | --- | --- | --- | --- | --- | --- | --- | --- | --- | --- | --- | --- | --- |
| 19.6 | 22.2 | 17.1 |  |  |  |  |  |  |  |  |  |  |  | CCS(=O)(=O)c1ccc(OCc2cc(=O)n3oc(C)cc3n2)c(NC(=O)COc2ccccc2C)c1 |
| 12 | 15.3 | 8.76 |  |  |  |  |  |  |  |  |  |  |  | O=C(c1csc(S(=O)(=O)NCc2ccccn2)c1)N1CCCCCC1 |
| 22 | 28.1 | 15.9 |  |  |  |  |  |  |  |  |  |  |  | O=C(NCc1ccc(F)cc1)C1CCCN(c2nc3c(-c4ccccc4)csc3c(=O)[nH]2)C1 (centres unmarked) |
| 14.3 | 13.4 | 15.2 |  |  |  |  |  |  |  |  |  |  |  | O=C(NCc1ccncc1)C1CCCN(c2nc3c(-c4ccccc4)csc3c(=O)[nH]2)C1 (centres unmarked) |
| 13.4 | 21.9 | 4.93 | 13.4 | 21.9 | 4.93 |  |  |  |  |  |  |  |  | Cc1cc(NC(=O)CSc2ccccc2)ccc1Cl [Compound 1068-0114] |
| 32.1 | 34.5 | 29.8 | 32.1 | 34.5 | 29.8 | 32.1 |  |  |  |  |  |  |  | COc1ccc(-c2nnc(SCC(=O)Nc3ccccc3OC)nc2-c2ccc(OC)cc2)cc1 [Compound 3809-1067] |
| 11.1 | 15.3 | 6.85 | 11.1 | 15.3 | 6.85 |  |  |  |  |  |  |  |  | O=C(CSc1cccc2cccnc12)Nc1ccc2ccccc2c1 [Compound 4084-0026] |
| 16.5 | 15 | 18 | 16.5 | 15 | 18 |  |  |  |  |  |  |  |  | CCC(=O)Nc1ccccc1-c1ccccc1NC(=O)CC [Compound 4478-7056] |
| 11.7 | 11.3 | 12.2 | 11.7 | 11.3 | 12.2 |  |  |  |  |  |  |  |  | O=C(CSc1nnc(-c2ccccc2)c(-c2ccccc2)n1)Nc1ccc(S(=O)(=O)Nc2nccs2)cc1 [Compound 4981-0539] |
| 10.5 | 7.2 | 13.8 | 10.5 | 7.2 | 13.8 |  |  |  |  |  |  |  |  | CCCSc1nnc(-c2ccccc2NC(=O)CC)c(O)n1 [Compound 5511-0142] |
| 16.8 | 15.5 | 18 | 16.8 | 15.5 | 18 |  |  |  |  |  |  |  |  | C=CCSc1nnc(-c2ccccc2NC(=O)CC)c(O)n1 [Compound 6969-1085] |
| 20.2 | 19.5 | 20.9 | 20.2 | 19.5 | 20.9 |  |  |  |  |  |  |  |  | CCCC(=O)Nc1ccccc1-c1nnc(SC)nc1O [Compound 7033-0155] |
| 15.7 | 18.6 | 12.7 | 15.7 | 18.6 | 12.7 |  |  |  |  |  |  |  |  | COc1ccc(-c2nnc(SCC(=O)Nc3cccc4ccccc34)nc2-c2ccccc2)cc1 [Compound 8014-3315] |
| 36.7 | 35.6 | 37.8 | 36.7 | 35.6 | 37.8 | 36.7 |  |  |  |  |  |  |  | Cc1cccc(-n2c(=O)c3[nH]c4ccccc4sc=3c2=O)c1 [Compound 8211-0292] |
| 19.5 | 17.8 | 21.2 | 19.5 | 17.8 | 21.2 |  |  |  |  |  |  |  |  | Nc1ccccc1SCC(=O)Nc1cccc2nsnc12 [Compound 8415-09495] |
|  |  |  |  |  |  |  | −5.743 | −5.743 |  |  |  |  |  | Cc1cccc(NC(=O)CS(=O)(=O)c2ccccc2)c1 [Compound C200-5958] |
| 26.3 | 27.4 | 25.1 | 26.3 | 27.4 | 25.1 |  |  |  |  |  |  |  |  | CCn1c(=O)c(S(=O)(=O)c2ccccc2)c(O)c2ccccc21 [Compound C200-7197] |
| 19.7 | 20.9 | 18.5 | 19.7 | 20.9 | 18.5 |  |  |  |  |  |  |  |  | O=C1CN(C(=O)CSc2ccccc2)c2ccccc2N1 [Compound D479-0271] |
| 10.3 | 0.98 | 19.6 |  |  |  |  |  |  | 10.3 | 0.98 | 19.6 | > 15 |  | COc1ccc(C2N[C@H](C(=O)O)Cc3c2[nH]c2ccccc32)cc1O (some centres unmarked) [Compound D715-0114] |
| 11.7 | 9.77 | 13.6 |  |  |  |  |  |  | 11.7 | 9.77 | 13.6 |  |  | COC(=O)[C@H]1Cc2c([nH]c3ccccc23)CN1 [Compound D715-0140] |
| 10.3 | 9.04 | 11.5 |  |  |  |  |  |  | 10.3 | 9.04 | 11.5 |  |  | O=C(Cc1c[nH]c2ccccc12)Nc1ccc2oc(=O)ccc2c1 [Compound D715-0817] |
| 15.3 | 17.1 | 13.6 |  |  |  |  |  |  | 15.3 | 17.1 | 13.6 |  | > 15 | Cc1cc(C)n(CC(=O)NCCc2c[nH]c3ccccc23)n1 [Compound D715-0890] |
| 14.5 | 14.3 | 14.7 |  |  |  |  |  |  | 14.5 | 14.3 | 14.7 |  | < 15 | O=C(O)C[C@@H]1NC(=O)c2ccccc2NC1=O [Compound D715-2673] |
| 10.4 | 13 | 7.81 |  |  |  |  |  |  | 10.4 | 13 | 7.81 |  |  | COc1ccccc1NC(=O)Cc1csc(NC(=O)Nc2ccccc2)n1 [Compound F042-0072] |
| 22 | 20.8 | 23.2 | 22 | 20.8 | 23.2 |  |  |  |  |  |  |  |  | O=C(NCc1n[nH]c(=O)c2ccccc12)C(=O)N1CCCCCC1 [Compound F044-0011] |
| 13.7 | 12.8 | 14.7 |  |  |  |  |  |  | 13.7 | 12.8 | 14.7 |  | < 15 | CC(C)NC(=O)C(=O)NCc1n[nH]c(=O)c2ccccc12 [Compound F044-0043] |
